Measured values as given in patent US9475839B2, “Peptide-based inhibitor of interleukin-10 or interferon-gamma signaling” (THE UNITED STATES OF AMERICA, AS REPRESENTED BY THE …, priority 2010, dated 2016).
Where two headings read alike, the source gives them in different places. Non-standard residues stand in square brackets, D forms with d. Residues, ends and D or L forms follow the SMILES beside them. *: point of attachment. Palmitoyl = CCCCCCCCCCCCCCCC(=O)*

Test system: MDA-MB-231 breast cancer cells
Experiment: Inhibition of IFN-gamma-dependent growth of MDA-MB-231 cells, MTT assay, 48 hours
Format: cell-based
[1] = Table 1, MTT assay after 48 hours exposure, concentration causing 50% inhibition in cell growth, read-out: GI50, MDA-MB-231

Experimental: Cells were exposed to compounds for 48 hours and cell number was determined with the help of MTT assay.
Cells were exposed to IL10-HF-1 for 48 hours and cell number was determined with the help of MTT assay.
Peptides designed to mimic conserved regions of the receptor sequences were tested for the ability to inhibit IL10 and IFN-gamma signaling. Inhibition of IL10 signaling was tested in a mouse mast cell line MC/9. […] Abrogation of IFN-gamma signaling or STAT1 activation causes cell death in this cell line.

GI50 (48 h) [nM]	Structure (SMILES)	further results
1000	CCCCCCCCCCCCCCCC(=O)NCCCC[C@H](N)C(=O)NCC(=O)N[C@@H](Cc1ccc(O)cc1)C(=O)N[C@@H](CC(=O)O)C(=O)N[C@@H](CCCCN)C(=O)N1CCC[C@H]1C(=O)N[C@@H](Cc1c[nH]cn1)C(=O)N[C@H](C(=O)N[C@@H](CC(C)C)C(=O)N[C@H](C(=O)N[C@@H](CC(=O)O)C(=O)N[C@@H](CC(C)C)C(=O)N[C@@H](CC(C)C)C(=O)N[C@H](C(=O)N[C@@H](CC(=O)O)C(N)=O)C(C)C)C(C)C)C(C)C [IFNGR1-7, ε-Pal-KGYDKPHVLVDLLVD-NH2] (H-K(Palmitoyl)GYDKPHVLVDLLVD-NH2; N-terminus assumed)	–
600	CCCCCCCCCCCCCCCC(=O)NCCCC[C@H](N)C(=O)NCC(=O)N[C@@H](Cc1ccc(O)cc1)C(=O)N[C@@H](CC(=O)O)C(=O)N[C@@H](CCCCN)C(=O)N1CCC[C@H]1C(=O)N[C@@H](Cc1c[nH]cn1)C(=O)N[C@H](C(=O)N[C@@H](CC(C)C)C(=O)N[C@H](C(N)=O)C(C)C)C(C)C [IFNGR1-12, ε-Pal-KGYDKPHVLV-NH2] (H-K(Palmitoyl)GYDKPHVLV-NH2; N-terminus assumed)	–
–	CCCCCCCCCCCCCCCC(=O)NCCCC[C@@H](NC(=O)[C@@H](CCCCN)NC(=O)[C@@H](CC(C)C)NC(=O)[C@H]1CCCN1C(=O)[C@@H](CO)NC(=O)[C@H](NC(=O)[C@@H](CC(C)C)NC(=O)[C@@H](CC(C)C)NC(=O)[C@@H](Cc1ccccc1)NC(=O)[C@@H](CCCCN)NC(=O)[C@@H](CCCCN)NC(=O)[C@H]1CCCN1C(=O)[C@@H](CO)NC(C)=O)C(C)C)C(N)=O [IL10R1-9, Ac-SPKKFLLVSPLKK-ε-Pal] (Ac-[dS][dP][dK][dK][dF][dL][dL][dV][dS][dP][dL][dK][dK](Palmitoyl)-NH2; C-terminus assumed)	GI50 [1]: 1000 nM
4500	CCCCCCCCCCCCCCCC(=O)NCCCC[C@H](N)C(=O)N[C@@H](CC(C)C)C(=O)N[C@@H](CC(N)=O)C(=O)N[C@@H](CO)C(=O)N[C@@H](Cc1ccc(O)cc1)C(=O)N[C@@H](Cc1c[nH]cn1)C(=O)N[C@@H](CO)C(=O)N[C@@H](CCCNC(=N)N)C(=O)N[C@@H](CC(N)=O)C(=O)NCC(=O)N[C@@H](CO)C(N)=O [IFNGR1-13, ε-Pal-KLNSYHSRNGS-NH2] (H-K(Palmitoyl)LNSYHSRNGS-NH2; N-terminus assumed)	–
2500	CCCCCCCCCCCCCCCC(=O)N[C@H](C(=O)N[C@@H](CC(C)C)C(=O)N1CCC[C@H]1C(=O)N[C@@H](CCCCN)C(=O)N[C@@H](CO)C(=O)N[C@@H](CC(C)C)C(=O)N[C@@H](CC(C)C)C(=O)N[C@@H](CO)C(=O)N[C@H](C(=O)N[C@H](C(=O)N[C@@H](CCCNC(=N)N)C(=O)N[C@@H](CO)C(=O)N[C@@H](C)C(=O)N[C@H](C(N)=O)[C@@H](C)O)C(C)C)C(C)C)[C@@H](C)CC [IFNGR1-4, ε-Pal-ILPKSLLSVVRSAT-NH2] (Palmitoyl-ILPKSLLSVVRSAT-NH2)	–
5000	CCCCCCCCCCCCCCCC(=O)NCCCC[C@H](N)C(=O)N[C@@H](CCCCN)C(=O)N[C@@H](Cc1ccc(O)cc1)C(=O)N[C@@H](CCC(N)=O)C(=O)N[C@@H](CO)C(=O)N[C@@H](CCCNC(=N)N)C(=O)N[C@H](C(=O)N[C@@H](CCCCN)C(=O)N[C@@H](Cc1ccc(O)cc1)C(=O)N[C@@H](Cc1c[nH]c2ccccc12)C(=O)N[C@@H](Cc1ccccc1)C(=O)N[C@@H](CCC(N)=O)C(=O)N[C@@H](C)C(=O)N1CCC[C@H]1C(=O)N1CCC[C@H]1C(=O)N[C@@H](CC(N)=O)C(=O)N[C@H](C(=O)N1CCC[C@H]1C(=O)O)[C@@H](C)CC)C(C)C [IFNGR2-1, ε-Pal-KKYQSRVKYWFQAPPNIP] (H-K(Palmitoyl)KYQSRVKYWFQAPPNIP-OH; N-terminus and C-terminus assumed)	–
–	CCCCCCCCCCCCCCCC(=O)NCCCC[C@@H](NC(=O)[C@@H](CCCCN)NC(=O)[C@@H](CC(C)C)NC(=O)[C@H]1CCCN1C(=O)[C@@H](CO)NC(=O)[C@H](NC(=O)[C@@H](CC(C)C)NC(=O)[C@@H](CC(C)C)NC(=O)[C@@H](Cc1ccccc1)NC(=O)[C@@H](CCCCN)NC(=O)[C@@H](CCCCN)NC(C)=O)C(C)C)C(N)=O [IL10R1-10, Ac-KKFLLVSPLKK-ε-Pal] (Ac-[dK][dK][dF][dL][dL][dV][dS][dP][dL][dK][dK](Palmitoyl)-NH2; C-terminus assumed)	GI50 [1]: 1000 nM
2000	CCCCCCCCCCCCCCCC(=O)NCCCC[C@H](N)C(=O)NCC(=O)N[C@@H](CCCCN)C(=O)N[C@@H](CCC(=O)O)C(=O)N[C@@H](CO)C(=O)N[C@@H](CC(C)C)C(=O)N[C@H](C(=O)NCC(=O)N[C@@H](Cc1ccc(O)cc1)C(=O)N[C@@H](CCCNC(=N)N)C(N)=O)[C@@H](C)CC [IFNGR1-11, ε-Pal-KGKESLIGYR-NH2] (H-K(Palmitoyl)GKESLIGYR-NH2; N-terminus assumed)	–
50	CCCCCCCCCCCCCCCC(=O)N1CCC[C@H]1C(=O)N[C@@H](CC(C)C)C(=O)N[C@@H](CCCCN)C(=O)N[C@@H](CCC(=O)O)C(=O)N[C@@H](CCCCN)C(=O)N[C@@H](CO)C(=O)N[C@H](C(=O)N[C@H](C(=O)N[C@@H](CC(C)C)C(=O)N1CCC[C@H]1C(=O)N[C@@H](CCCCN)C(=O)N[C@@H](CO)C(=O)N[C@@H](CC(C)C)C(=O)N[C@@H](CC(C)C)C(=O)N[C@@H](CO)C(=O)N[C@H](C(=O)N[C@H](C(=O)N[C@@H](CCCNC(=N)N)C(N)=O)C(C)C)C(C)C)[C@@H](C)CC)[C@@H](C)CC [IFNGR1-3, ε-Pal-PLKEKSIILPKSLLSVVR-NH2] (Palmitoyl-PLKEKSIILPKSLLSVVR-NH2)	–
–	CCCCCCCCCCCCCCCC(=O)NCCCC[C@@H](NC(=O)[C@@H](CCCCN)NC(=O)[C@@H](CC(C)C)NC(=O)[C@H]1CCCN1C(=O)[C@@H](CO)NC(=O)[C@H](NC(=O)[C@@H](CC(C)C)NC(=O)[C@@H](CC(C)C)NC(=O)[C@@H](Cc1ccccc1)NC(=O)[C@@H](CCCCN)NC(=O)[C@@H](CCCCN)NC(=O)[C@H]1CCCN1C(C)=O)C(C)C)C(N)=O [IL10R1-11, Ac-PKKFLLVSPLKK-ε-Pal] (Ac-[dP][dK][dK][dF][dL][dL][dV][dS][dP][dL][dK][dK](Palmitoyl)-NH2; C-terminus assumed)	GI50 [1]: 1000 nM
1600	CCCCCCCCCCCCCCCC(=O)NCCCC[C@H](N)C(=O)NCC(=O)N[C@@H](Cc1ccc(O)cc1)C(=O)N[C@@H](CC(=O)O)C(=O)N[C@@H](CCCCN)C(=O)N1CCC[C@H]1C(=O)N[C@@H](Cc1c[nH]cn1)C(=O)N[C@H](C(N)=O)C(C)C [IFNGR1-15, ε-Pal-KGYDKPHV-NH2] (H-K(Palmitoyl)GYDKPHV-NH2; N-terminus assumed)	–
2500	CCCCCCCCCCCCCCCC(=O)NCCCC[C@H](N)C(=O)NCC(=O)NCC(=O)N[C@@H](CCCCN)C(=O)N[C@@H](CCC(=O)O)C(=O)N[C@@H](CO)C(=O)N[C@@H](CC(C)C)C(=O)N[C@H](C(=O)NCC(=O)N[C@@H](Cc1ccc(O)cc1)C(=O)N[C@@H](CCCNC(=N)N)C(N)=O)[C@@H](C)CC [IFNGR1-10, ε-Pal-KGGKESLIGYR-NH2] (H-K(Palmitoyl)GGKESLIGYR-NH2; N-terminus assumed)	–
> 25000	CCCCCCCCCCCCCCCC(=O)N[C@@H](Cc1ccccc1)C(=O)N[C@@H](Cc1ccc(O)cc1)C(=O)N[C@H](C(=O)N[C@@H](CCCCN)C(=O)N[C@@H](CCCCN)C(=O)N[C@H](C(=O)N[C@@H](CC(N)=O)C(=O)N1CCC[C@H]1C(=O)N[C@@H](CC(C)C)C(=O)N[C@@H](CCCCN)C(=O)N[C@@H](CCC(=O)O)C(=O)N[C@@H](CCCCN)C(=O)N[C@@H](CO)C(=O)N[C@H](C(=O)N[C@H](C(=O)N[C@@H](CC(C)C)C(=O)N1CCC[C@H]1C(=O)N[C@@H](CCCCN)C(=O)N[C@@H](CO)C(N)=O)[C@@H](C)CC)[C@@H](C)CC)[C@@H](C)CC)[C@@H](C)CC [IFNGR1-1, ε-Pal-FYIKKINPLKEKSIILPKS-NH2] (Palmitoyl-FYIKKINPLKEKSIILPKS-NH2)	–
5000 ± 1000	CCCCCCCCCCCCCCCC(=O)NCCCC[C@H](N)C(=O)N[C@@H](CO)C(=O)N[C@H](C(=O)N[C@@H](C)C(=O)N[C@@H](CC(C)C)C(=O)N[C@@H](CC(N)=O)C(=O)N[C@@H](CO)C(=O)N[C@@H](Cc1ccc(O)cc1)C(=O)N[C@@H](Cc1c[nH]cn1)C(=O)N[C@@H](CO)C(=O)N[C@@H](CCCNC(=N)N)C(=O)N[C@@H](CC(N)=O)C(N)=O)[C@@H](C)CC [IFNGR1-8, ε-Pal-KSIALNSYHSRN-NH2] (H-K(Palmitoyl)SIALNSYHSRN-NH2; N-terminus assumed)	–
70	CCCCCCCCCCCCCCCC(=O)NCCCC[C@H](N)C(=O)NCC(=O)N[C@@H](CCCCN)C(=O)N[C@@H](CCC(=O)O)C(=O)N[C@@H](CO)C(=O)N[C@@H](CC(C)C)C(=O)N[C@H](C(=O)NCC(=O)N[C@@H](Cc1ccc(O)cc1)C(=O)N[C@@H](CCCNC(=N)N)C(=O)N1CCC[C@H]1C(=O)N[C@H](C(N)=O)[C@@H](C)O)[C@@H](C)CC [IFNGR1-6, ε-Pal-KGKESLIGYRPT-NH2] (H-K(Palmitoyl)GKESLIGYRPT-NH2; N-terminus assumed)	–
–	CCCCCCCCCCCCCCCC(=O)NCCCC[C@H](N)C(=O)N[C@@H](Cc1ccccc1)C(=O)NCC(=O)N[C@@H](Cc1ccc(O)cc1)C(=O)N[C@@H](CC(=O)O)C(=O)N[C@@H](CCCCN)C(=O)N1CCC[C@H]1C(=O)N[C@@H](Cc1c[nH]cn1)C(=O)N[C@H](C(N)=O)C(C)C [IFNGR1-16, ε-Pal-KFGYDKPHV-NH2] (H-K(Palmitoyl)FGYDKPHV-NH2; N-terminus assumed)	GI50 (Table 3, MDA-MB-231 breast cancer cell line growth, regions B, C, D of IFNGR1, read-out: GI50): 2100 nM
